Experiments:
[1] = system: CD4 and CD8 cells in PBMC; assay: IFNγ and IL-4 production by T cells upon anti-CD3/anti-CD28 stimulation in PBMC; assay type: cell-based, human; conditions: 48 and 72 hours
Procedure: This study was repeated two times (n=2) with blood from two different donors. 100 μL PBMCs (1×10^6 cells/mL) in RPMI-1640 with 10% FBS were added into anti-CD3 antibody coated wells with or without soluble 0.5 μg/mL anti-CD28 antibody. […] Three technical replicates were included for each assay condition. At the end of the study, cells were transferred, washed, stained and analyzed by flow cytometry as described in section 3.1. For intracellular staining, cells were fixed by cytofix buffer (BD Biosciences, Catalog #554655) at room temperature for 20 minutes and permeablized by perm/wash buffer (BD Biosciences, catalog #554723) at room temperature for 30 minutes before staining with antibodies or isotype controls.
The raw percentage and MFI data for each marker at each concentration of BCMA ADC was compared to the corresponding IgG control in the statistical analysis. To account for the variability of the different blood donors, a linear mixed effect model was used to analyze the data. […]
For data reporting, the average percentage or average MFI value among three technical replicates was generated at each BCMA ADC concentration and the % difference values were calculated as: % difference=(Avg 916−Avg IgG)*100/Avg IgG, where Avg 916 and Avg IgG represent the average values of the BCMA ADC treatment group and the IgG control group, respectively. […]

Dendritic cells = assay: Co-culture of immature dendritic cells with BCMA ADC treated NCI-H929 cells, maturation markers by flow cytometry; assay type: cell-based, human
From the text: The process of immunogenic cell death can induce the production of danger molecules that lead to the activation of dendritic cells (see FIG. 1A-ICD is a special type of apoptosis often associated with the cellular release of ATP and HMGB1, and exposure of CRT at the cellular membrane. ICD induces an immune response through engagement of the antigen presentation process by dendritic cells (DCs)). […] Anti-BCMA-MMAF induced ATP release, HMGB1 release and CRT exposure only in NCI-H929, a BCMA positive MM cell line). To investigate the effect of NCI-H929 cell killing by BCMA ADC on the activation of dendritic cells, co-culture experiments were carried out with BCMA ADC treated NCI-H929 cells and immature dendritic cells (iDCs) differentiated from human monocytes in vitro with GM-CSF/IL-4 treatment. A number of dendritic cell maturation markers as well as IL-10 and IL-12p70, two major cytokines secreted by dendritic cells upon activation, were monitored in this process to assess the effect of BCMA ADC induced cell death on dendritic cell activation. Fresh, whole Human blood was obtained from three healthy donors from the Upper Providence Blood Donation Unit with syringes coated in liquid sodium heparin ([…] 10 IU/mL final concentration). Monocytes were isolated from fresh, whole human blood using the RosetteSep Monocyte Enrichment kit (Cat. #15068) and were assessed for expression of cell surface CD14 (BD Bioscience Cat. #562698) using flow cytometry. […] All cells were counted at the initiation of the co-culture and diluted with X-Vivo-15 media to a concentration of 7.5×10^5 cells/mL. […] Data for the secreted IL-10 and IL-12p70 from supernatants in the co-culture assays w analyzed in MSD Discovery Workbench v4.0.12. […] Marker expression was measured in (a) untreated (no BCMA ADC) Dendritic cells alone and (b-f) Dendritic cells that were co-cultured with (b) untreated (no BCMA ADC), (c) IgG Control (10 μg/mL), (d) 0.1, (e) 1 and (f) 10 μg/mL BCMA ADC treated (48 hours) NCI-H929 cells. […]

[2] = Hallmarks of immunogenic cell death in vivo and in vitro (Example 7)
[3] = three healthy donors, 24 hour co-culture, 0.1, 1, 10 μg/mL BCMA ADC

With GSK2857916 as the substance, how does the IFNγ production [1] read?
The IFNγ production was “no significant effect”.

And the IL-4 production [1]?
The IL-4 production was “no significant effect”.

What about the “effect of killing of NCI-H929 cells on dendritic cells” value (Dendritic cells; 24 hour co-culture 1:1 with NCI-H929 cells treated 48 hours) of the same substance?
The value was “stimulatory effect on dendritic cells”.

What about the “CD40 cell surface expression on CD11c+ Dendritic cells” value (Dendritic cells; [3]) of the same substance?
Its value is “increased”.

And the “CD83 cell surface expression on HLA-DR+ Dendritic cells” value (Dendritic cells; [3])?
Its value is “increased”.

What about the “hallmarks of ICD (cell surface calreticulin and other ER stress response proteins, secretion of HMGB1)” value [2] of the same substance?
Its value is “induces hallmarks of ICD”.

From patent US20220096650A1 (Glaxosmithkline Intellectual Property Development Limited, priority 2019, published 2022)
